Our source for the MIC and Minimal inhibitory concentration values is publication PMC12217461 (Antimicrobial Agents and Chemotherapy, 2025).

Common to all, as to assay: microbe, parasite or virus in culture
What all share (assay type): cell-based

The test system of test [1] is Klebsiella pneumoniae SMART 1134. As to conditions: IMP-34, CTX-M-2, TAN/XER fixed at 4 µg/mL, XER 8 µg/mL in MEM-XER; for MIC: Klebsiella pneumoniae, SMART1134, read-out: Minimal inhibitory concentration. The protocol:
(§1) Most isolates and their respective β-lactamase content were characterized by whole-genome sequencing.
(§2) To assess the inhibitory potency of XER, susceptibility testing was performed by broth microdilution method, determining the minimal inhibitory concentrations (MICs) of different antibiotics or antibiotic plus β-lactamase inhibitor combinations, including cefepime (FEP), imipenem (IPM), meropenem (MEM), and their combinations with XER (FEP-XER, IPM-XER, and MEM-XER). All data obtained with XER-based combinations were compared with data with TAN-based combinations, FEP-TAN, IPM-TAN, and MEM-TAN ([16]). FEP was purchased from Sigma-Aldrich (Saint-Louis, USA), whereas MEM was from HuiChem (Shanghai, China). […] MICs were determined in triplicate in cation-adjusted Mueller-Hinton (MH) broth (Bio-Rad, Marnes-la-Coquette, France) according to the CLSI guidelines ([53]). The results were interpreted according to the decrease in MIC value for the same antibiotic or combination of the corresponding recombinant strain producing the MBL enzyme. […] In a recent phase I clinical evaluation, XER was combined with cefiderocol. However, as this latter β-lactam substrate is known to be poorly hydrolyzed by IMP enzymes, it was not considered for the evaluation of XER inhibitory activity in this study. Instead, carbapenems were used as a substrate to evaluate the β-lactamase IMP activity in the presence or absence of XER and TAN, as it was deemed more specific for the IMP carbapenemase activity.

For test [2], the system named is Escherichia coli SMART 1132. The settings on record: SMART1132, IMP-6, CTX-M-2, TAN/XER fixed at 4 µg/mL, XER 8 µg/mL in MEM-XER, read-out: Minimal inhibitory concentration. The method, then: as §1, §2
The test system of test [3] is Klebsiella pneumoniae SMART 882. As to conditions: for MIC: Klebsiella pneumoniae, SMART882, read-out: Minimal inhibitory concentration. The protocol:
as §1, §2

Test [4] concerns Enterobacter hormaechei subsp. steigerwaltii SMART 398. As to conditions: read-out: Minimal inhibitory concentration. The method, then: as §1, §2
In a further test the test system is Escherichia coli AZ 1677. The settings on record: AZ1677, IMP-59, TEM-1, TAN/XER fixed at 4 µg/mL, XER 8 µg/mL in MEM-XER, read-out: Minimal inhibitory concentration. The protocol: as §1, §2
Test [5] concerns Klebsiella pneumoniae SMART 1131. The settings on record: SMART1131, IMP-6, CTX-M-2, TAN/XER fixed at 4 µg/mL, XER 8 µg/mL in MEM-XER, read-out: Minimal inhibitory concentration. The protocol: as §1, §2
Test [6] deals with Enterobacter hormaechei subsp. steigerwaltii SMART 1234. The settings on record: read-out: Minimal inhibitory concentration. The method, then:
as §1, §2

The subject of test [7] is Enterobacter xiangfangensis SMART 409. The settings on record: Enterobacter hormaechei, SMART409, read-out: Minimal inhibitory concentration. The method, then: as §1, §2
Test [8] has as its system Klebsiella pneumoniae SMART 875. The settings on record: SMART875, IMP-26, CTX-M-15, TEM-1 like, TAN/XER fixed at 4 µg/mL, XER 8 µg/mL in MEM-XER, read-out: Minimal inhibitory concentration. The protocol: as §1, §2
Test [9] has as its system Escherichia coli SMART 640. As to conditions: SMART640, IMP-14, CTX-M-27, OXA-10, TAN/XER fixed at 4 µg/mL, XER 8 µg/mL in MEM-XER, read-out: Minimal inhibitory concentration. The method, then:
as §1, §2

The subject of test [10] is Escherichia coli SMART 1735. The settings on record: SMART1735, IMP-59, TEM-1, TAN/XER fixed at 4 µg/mL, XER 8 µg/mL in MEM-XER, read-out: Minimal inhibitory concentration. The method, then: as §1, §2
The test system of a further test is C. freundii SMART 315. The settings on record: Citrobacter freundii, SMART315; IMP-4, CTX-M-9; TAN/XER fixed at 4 µg/mL, XER 8 µg/mL in MEM-XER; read-out: Minimal inhibitory concentration. The method, then:
as §1, §2

Test [11] has as its system Pseudomonas aeruginosa PA16. The settings on record: IMP-29, TAN/XER fixed at 4 µg/mL, XER 8 µg/mL in MEM-XER, read-out: Minimal inhibitory concentration. The protocol:
as §1, §2

Test [12] relates to Enterobacter hormaechei subsp. oharae SMART 1260. The settings on record: read-out: Minimal inhibitory concentration. The protocol: as §1, §2
Test [13] deals with Pseudomonas aeruginosa PA14. The settings on record: IMP-18, TAN/XER fixed at 4 µg/mL, XER 8 µg/mL in MEM-XER, read-out: Minimal inhibitory concentration. The method, then: as §1, §2
For test [14], the system named is Pseudomonas aeruginosa PA11. The settings on record: IMP-10, TAN/XER fixed at 4 µg/mL, XER 8 µg/mL in MEM-XER, read-out: Minimal inhibitory concentration. The method, then: as §1, §2
Test [15] concerns Escherichia coli ATCC 25922. The settings on record: ATCC25922, QC 3, no acquired β-lactamase, TAN/XER fixed at 4 µg/mL, XER 8 µg/mL in MEM-XER, read-out: Minimal inhibitory concentration. The protocol: as §2
Test [16] concerns Escherichia coli NCTC 13353. As to conditions: NCTC13353, read-out: Minimal inhibitory concentration. The method, then:
as §2

In another test the test system is E. coli TOP10. The settings on record: Escherichia coli, no MBL, TAN/XER fixed at 4 µg/mL, XER 8 µg/mL in MEM-XER, read-out: Minimal inhibitory concentration.
Source text: Genes encoding different acquired IMP-like enzymes suspected to be resistant to XER (blaIMP-6, blaIMP-7, blaIMP-10, blaIMP-14, blaIMP-26, blaIMP-34, and blaIMP-59) were amplified by PCR, and corresponding amplicons were cloned into plasmid pUCP24 and expressed in E. coli TOP10. The following recombinant E. coli strains producing IMP-1, IMP-4, IMP-19, and NDM-1 were used from a previous study ([16]). […] For that purpose, a list of primers was designed and provided as Table S1. […] The nomenclature used in this study was according to the BBL sequence numbering ([52]).
as §2

On to `CO/N=C(\C(=O)N[C@@H]1C(=O)N2C(C(=O)[O-])=C(C[N+]3(C)CCCC3)CS[C@H]12)c1csc(N)n1` [FEP, cefepime], for which the MIC turned out to be 256 µg/mL in [1]; 128 µg/mL in test [2]; 256 µg/mL in [3]; 128 µg/mL in test [4]; 8 µg/mL with Escherichia coli AZ 1677; 64 µg/mL in test [5]. The MIC was 8 µg/mL in test [6]; 4 µg/mL in test [7]; 64 µg/mL in test [8]; 128 µg/mL in test [9]; 8 µg/mL in [10]; 16 µg/mL in the test on C. freundii SMART 315. The MIC in [11] is 16 µg/mL; in test [12], 32 µg/mL; in test [13], 256 µg/mL; in test [14] it was more than 256 µg/mL; in test [15], not above 0.25 µg/mL; in test [16], 256 µg/mL. The MIC in the test on E. coli TOP10 was not above 0.25 µg/mL.

As to `C[C@@H](O)[C@H]1C(=O)N2C(C(=O)O)=C(SCCN=CN)C[C@H]12` [IPM, imipenem], the MIC was 0.5 µg/mL in [1]; not above 0.25 µg/mL in [2]; not above 0.25 µg/mL in test [3]; 0.5 µg/mL in test [4]; not above 0.25 µg/mL with Escherichia coli AZ 1677; not above 0.25 µg/mL in test [5]. Also, the MIC in [6] is not above 0.25 µg/mL; in test [7], not above 0.25 µg/mL; in test [8], not above 0.25 µg/mL; in [9] it was 0.5 µg/mL; in [10], not above 0.25 µg/mL; in the test with C. freundii SMART 315, not above 0.25 µg/mL. In addition, the MIC is 16 µg/mL in test [11]; not above 0.25 µg/mL in test [12]; 128 µg/mL in [13]; 256 µg/mL in test [14]; not above 0.25 µg/mL in test [15]; not above 0.25 µg/mL in [16]. The MIC in the test with E. coli TOP10 was not above 0.25 µg/mL.

For the molecule `C[C@@H](O)[C@H]1C(=O)N2C(C(=O)O)=C(S[C@@H]3CN[C@H](C(=O)N(C)C)C3)[C@H](C)[C@H]12` [MEM, meropenem], the Minimal inhibitory concentration came to 8 µg/mL in [1] and 1 µg/mL in test [3] (IMP-26, CTX-M-15, OXA-1, TAN/XER fixed at 4 µg/mL, XER 8 µg/mL in MEM-XER). The MIC amounted to 16 µg/mL in test [1]; 4 µg/mL in test [2]; 4 µg/mL in test [3]; 0.5 µg/mL in test [4]; 0.5 µg/mL with Escherichia coli AZ 1677; 8 µg/mL in test [5]. Moreover, the MIC in test [6] was 0.5 µg/mL; in [7], not above 0.125 µg/mL; in [8], 0.125 µg/mL; in [9] it was 4 µg/mL; in test [10], 0.5 µg/mL; in the test with C. freundii SMART 315 it was 2 µg/mL. The MIC is 32 µg/mL in test [11]; 1 µg/mL in test [12]; 32 µg/mL in test [13]; more than 256 µg/mL in test [14]; not above 0.25 µg/mL in [15]; not above 0.25 µg/mL in test [16]. Besides, the MIC with E. coli TOP10 is not above 0.25 µg/mL.
